In the NIST ThermoML archive (doi:10.1021/je8009732):
± gives the expanded uncertainty stated by the source.

Legend:
[1] = refractive index (Na D-line) (dimensionless); settings: 298.15 K; 101.33 kPa; Liquid; Standard Abbe refractometry
[2] = 298.15 K, 101.3 kPa, Liquid; for mass density: Vibrating tube method
[3] = refractive index (Na D-line) (dimensionless); xn = mol fraction of the nth substance listed; settings: 298.15 K, 101.3 kPa, Liquid, Standard Abbe refractometry
[4] = xn = mol fraction of the nth substance listed; settings: 298.15 K, 101.3 kPa, Liquid; for mass density: Vibrating tube method

CCOS(=O)(=O)[O-].CC[n+]1cccc(C)c1 [1-ethyl-3-methylpyridinium ethylsulfate]
Settings | mass density [kg/m3] | refractive index | viscosity [mPa·s]
[1] | – | 1.50666 ± 0.0012 | –
[2] | 1222.2 ± 8.1 | – | 161.4 ± 27

CCOS(=O)(=O)[O-].CC[n+]1cccc(C)c1 [1-ethyl-3-methylpyridinium ethylsulfate] + CCCO
Settings | mass density, [4] [kg/m3] | refractive index, [3] | viscosity, [4] [mPa·s]
x2 = 0 | 1222.2 ± 8.1 | 1.50666 ± 0.0012 | 161.4 ± 27
x2 = 0.0863 | 1208.44 ± 6.6 | 1.50223 ± 0.0011 | 126.4 ± 17
x2 = 0.1279 | 1201.22 ± 6 | 1.5002 ± 0.0011 | 112.4 ± 13
x2 = 0.2201 | 1183.56 ± 4.6 | 1.49524 ± 0.001 | 85.83 ± 7
x2 = 0.3243 | 1160.24 ± 3.4 | 1.48866 ± 0.00096 | 62.26 ± 2.6
x2 = 0.4177 | 1135.68 ± 2.4 | 1.48167 ± 0.0009 | 48.86 ± 2
x2 = 0.5126 | 1106.18 ± 1.6 | 1.47321 ± 0.00084 | 34.16 ± 1.3
x2 = 0.6093 | 1069.97 ± 1.1 | 1.4627 ± 0.00079 | 24.62 ± 0.93
x2 = 0.7176 | 1019.9 ± 0.71 | 1.44818 ± 0.00074 | 16.27 ± 0.61
x2 = 0.824 | 956.78 ± 0.57 | 1.4297 ± 0.0007 | 9.9 ± 0.38
x2 = 0.8834 | 913.04 ± 0.55 | 1.41684 ± 0.00069 | 7.027 ± 0.29
x2 = 0.9658 | 837.78 ± 0.53 | 1.39459 ± 0.00068 | 3.411 ± 0.15

CCCO [propan-1-ol] + CCOS(=O)(=O)[O-].CC[n+]1cccc(C)c1
x1 = 1
Settings | mass density [kg/m3] | refractive index | viscosity [mPa·s]
[3] | – | 1.3837 ± 0.00068 | –
[4] | 799.5 ± 0.53 | – | 2.017 ± 0.093

CCCO [propan-1-ol]
Settings | mass density [kg/m3] | refractive index | viscosity [mPa·s]
[1] | – | 1.3837 ± 0.00068 | –
[2] | 799.5 ± 0.53 | – | 2.017 ± 0.093
